# Results taken from US20190017999A1, “IN VITRO SKIN IMMUNE SYSTEM SIMULATION SYSTEM” (Seoul National University R&DB Foudation, priority 2015, published 2019).
# Entries after “also recorded” stand apart in the source; their conditions may differ.
# What was measured:
# Format in all cases: cell-based, human
# [1] = test system: HUVEC microvessels with U87MG cells; assay: Cancer angiogenesis assay in microfluidic chip (angiogenic sprouting from microvessels induced by U87MG cells); details: bevacizumab 500 μg/ml
# Description: Human umbilical vein endothelial cells (HUVEC, Lonza) were cultured in endothelial cell growth medium (EGM-2, Lonza). Normal human lung fibroblasts (LF, Lonza) were cultured in fibroblast growth medium (FGM-2, Lonza). Human glioblastoma cells (U87MG, ATCC, Virginia) were cultured in DMEM medium supplemented with 10% fetal bovine serum (FBS), penicillin (100 U/ml) and streptomycin (100 U/ml). MDA-MA-231 cells were purchased from the ATCC (Manassas, Va.). MDA-MB-231 cells were transfected with a pEGFP plasmid, and cells were selected using 1 mg/ml G418 (A.G. scientific, Inc.). MDA-MA-231 GFP cells obtained from monoclones were incubated in RPMI1640 (WELGENE, Korea) supplemented with 10% fetal bovine serum, 1% penicillin/streptomycin (Gibco, BRL) and 250 μg/ml G418 (A.G. scientific, Inc.). All cells were incubated in a humidified incubator at 37° C. under 5% CO2. For immunostaining, endothelial cells were imaged using mouse monoclonal antibodies specific for human ZO-1 (Alexa Fluor594, clone ZO1-1A12, molecular probe), CD31 ([…], clone WM59, Biolegends), VE-cadherin (eBioscience) and claudin-5 (Invitrogen), and the nucleus was stained with Hoechst 33342 (molecular probe). Bevacizumab (Avastin, Genentech) was diluted to 500 μg/ml, and microvessels introduced with cancer were treated with the dilution in cancer angiogenesis experiments. Recombinant human TNF-alpha (PetroTech) was diluted to 5 ng/ml, and microvessels were treated with the dilution at 24 hours before introduction of cancer. […]
# (§1) For the quantification of cancer angiogenesis, sprout area and the number of sprouts were manually quantified by using Image J. For quantification of cancer intravasation, the microvessels were stained with CD31 and fluorescence imaged, and cancer cells at the apical side of the microvessel were manually counted using the IMARIS software.
# The present inventors analyzed the angiogenic potential of cancer cells by using the microvessels having a smooth vessel wall. […]
# [2] = test system: MDA-MB-231 cancer cells intravasating into microvessels; assay: Cancer intravasation assay in microfluidic chip
# Description: (§2) Human umbilical vein endothelial cells (HUVEC, Lonza) were cultured in endothelial cell growth medium (EGM-2, Lonza). Normal human lung fibroblasts (LF, Lonza) were cultured in fibroblast growth medium (FGM-2, Lonza). Human glioblastoma cells (U87MG, ATCC, Virginia) were cultured in DMEM medium supplemented with 10% fetal bovine serum (FBS), penicillin (100 U/ml) and streptomycin (100 U/ml). MDA-MA-231 cells were purchased from the ATCC (Manassas, Va.). MDA-MB-231 cells were transfected with a pEGFP plasmid, and cells were selected using 1 mg/ml G418 (A.G. scientific, Inc.). MDA-MA-231 GFP cells obtained from monoclones were incubated in RPMI1640 (WELGENE, Korea) supplemented with 10% fetal bovine serum, 1% penicillin/streptomycin (Gibco, BRL) and 250 μg/ml G418 (A.G. scientific, Inc.). […]
# as §1
# As a vessel to assess the transendothelial migration of MDA-MB-231 cancer cells, the microvessel obtained in the present invention was used. […] The number of cancer cells intravasated into the microvessels was manually counted. […]
# [3] = test system: VE-cadherin; assay: VE-cadherin immunostaining of cell-cell junctions in microvessels; details: 5 ng/ml TNF-α-treated microvessels versus control microvessels (FIG. 5B)
# Description: as §2, with “Inc.).” for “Inc.). MDA-MA-231 GFP cells obtained from monoclones were incubated in RPMI1640 (WELGENE, Korea) supplemented with 10% fetal bovine serum, 1% penicillin/streptomycin (Gibco, BRL) and 250 μg/ml G418 (A.G. scientific, Inc.).”
# For microvascular DIC (Differential Interference Contrast Microscope) imaging, the Nikon AE31 microscope was used. […] Confocal images were analyzed using IMARIS software (Bitplane, Switzerland). For fluorescence imaging, FITC-dextran-injected samples were imaged using the IX81 inverted microscope (Olympus).
# As a vessel to assess the transendothelial migration of MDA-MB-231 cancer cells, the microvessel obtained in the present invention was used. […] The number of cancer cells intravasated into the microvessels was manually counted. […] In addition, the effect of TNF-α on cancer cell intravasation was analyzed. the rate of intravasation with or without TNF-α treatment was compared (n=7 chips per condition). […]
# [4] = test system: blood vessels and pericytes (HUVEC-pericyte co-culture); assay: Response of co-cultured blood vessels and pericytes to added factors; details: factor added to blood vessel-pericyte co-culture of Example 5; compared to control group (FIG. 13)
# [5] = test system: microvessels (HUVEC); assay: Microvessel permeability coefficient by time-lapse FITC-dextran imaging; details: 5 ng/ml TNF-α over 24 h
# Description: as §2, with “Inc.).” for “Inc.). MDA-MA-231 GFP cells obtained from monoclones were incubated in RPMI1640 (WELGENE, Korea) supplemented with 10% fetal bovine serum, 1% penicillin/streptomycin (Gibco, BRL) and 250 μg/ml G418 (A.G. scientific, Inc.).”
# To quantify the success rate of the smooth and continuous boundary of microvessels, the length of the vessel boundary was measured, and compared with the straight-line length of the blood vessel channel along the microvessel by use of image J. When the boundary length value was within ±10% of the linear length of the vascular channel, the chip was regarded as success. […] The acquired time-lapse image was analyzed using Image J, and the permeability coefficient was calculated using Equation 1 below: […]
# The present inventors introduced 20 kDa FITC-dextran solution into the microvessel to verify the patency of the lumen, and visualized the behavior of the lumen using fluorescence microscopy. […] The present inventors analyzed the junctions by fluorescent immunostaining for claudin-5 and ZO-1 (FIGS. 3C and 3D). […]
# [6] = 3 days after introduction of U87MG cells, versus U87MG without bevacizumab
molecule,measurement,setting,value
"bevacizumab: anti-vascular endothelial growth factor (anti-VEGF) antibody, Avastin, Genentech",coverage area of sprouts,[1]; [6],significantly reduced; also recorded: drastically decreasing
same,number of sprouts,[1]; [6],significantly reduced; also recorded: drastically decreasing
same,microvascular sprouts / vessel boundary in micrographs,[1]; microscopic images 3 days after injection of cancer cells (FIG. 4A),greatly reduced; also recorded: flat boundary without angiogenic sprouts
TNF-α,rate of cancer intravasation relative to control,"[2]; 5 ng/ml TNF-α 24 hours before introduction of MDA-MB-231 cells, n=7 chips per condition",3 fold
same,rate of cancer intravasation (in words),"[2]; TNF-α-treated microvessels compared with control experiment, p<0.0005",very high rate of cancer intravasation
same,VE-cadherin junction morphology,[3],disrupted and pleated form; also recorded: disrupted continuity and wrinkled morphology
same,response of pericytes and blood vessels,[4],pericytes sprouted out from the blood vessels and formed many filopodia
same,permeability of TNF-α-treated microvessels,"[5]; mean±standard error, n=5 chips",2.22±0.67×10^−6 cm/s
same,permeability relative to normal condition,[5]; versus normal condition,1.4 fold
"IL-1a: typical factor occurring in the peritumoral environment and inflammatory conditions (protein, UniProt P01583 113-271, looked up) Interleukin-1 alpha: SAPFSFLSNVKYNFMRIIKYEFILNDALNQSIIRANDQYLTAAALHNLDEAVKFDMGAYKSSKDDAKITVILRISKTQLYVTAQDEDQPVLLKEMPEIPKTITGSETNLLFFWETHGTKNYFTSVAHPNLFIATKQDYWVCLAGGPPSITDFQILENQA",response of pericytes and blood vessels,[4],pericytes sprouted out from the blood vessels and formed many filopodia
